Results on two compounds are retold here after patent US20170157159A1, “COMBINATION TREATMENT OF ACUTE MYELOID LEUKEMIA AND MYELODYSPLASTIC SYNDROME I” (Boehringer Ingelheim International GmbH, priority 2013, published 2017).

This experiment has as its system human AML cell line MV4;11. Kind of experiment: Nude mouse xenograft model derived from human AML cell line MV4;11: tumor growth. The experiment is classed as in vivo. Conditions: 21 days, MV4;11 xenograft. As for the experimental part:
MV4;11 (CRL-9591) cells were obtained from ATCC. According to the Catalogue of Somatic Mutations in Cancer of the Wellcome Trust Sanger Institute, UK, this cell line carries a mutation in the FLT3 gene. Cells were cultured in T175 tissue culture flasks at 37° C. and 5% CO2. The medium used was IMDM supplemented with 10% fetal calf serum, 1% NEAA, 1% sodium pyruvate and 1% glutamine.
Mice were 8-9 week-old athymic female BomTac: NMRI-Foxn1^nu purchased from Taconic, Denmark. After arrival in the animal facility, mice were allowed to adjust to ambient conditions for at least 3 days before they were used for experiments. They were housed in Macrolon® type II cages in groups of 5 under standardized conditions at 21.5±1.5° C. temperature and 55±10% humidity. Standardized diet (PROVIMI KLIBA) and autoclaved tap water were provided ad libitum.
To establish subcutaneous tumors, MV4;11 cells were harvested and resuspended in PBS+5% FCS at 5×10^7 cells/ml. 50 μl of the cell suspension containing 2.5×10^6 cells was then injected subcutaneously into the right flank of the mice (1 site per mouse). Growth factor reduced BD Matrigel™ Matrix (BD Biosciences) was added to the cell suspension at a ratio of 1:1 before the injection.
Volasertib (BI 6727) was dissolved in hydrochloric acid (0.1 N), diluted with 0.9% NaCl and injected intravenously into the tail vein. An administration volume of 10 ml per kg body weight was used. The solution was freshly made up each injection day. Decitabine was dissolved in 0.9% NaCl and administered i.p. An administration volume of 10 ml per kg body weight was used.
The tumor diameter was measured three times a week with a caliper. The volume of each tumor [in mm^3] was calculated according to the formula “tumor volume=length*diameter^2*π/6”. To monitor side effects of treatment, mice were inspected daily for abnormalities and body weight was determined three times a week. […] In addition animals with tumor sizes exceeding 2000 mm^3 were sacrificed early during the studies for ethical reasons.
(§1) Animals were treated for 21 days.
as §1, §1
Background: Xenograft models place foreign cells or tissue in a host animal.

For the compound `CC[C@@H]1C(=O)N(C)c2cnc(Nc3ccc(C(=O)N[C@H]4CC[C@H](N5CCN(CC6CC6)CC5)CC4)cc3OC)nc2N1C(C)C` [Volasertib, N-[trans-4-[4-(cyclopropylmethyl)-1-piperazinyl]cyclohexyl]-4-[[(7R)-7-ethyl-5,6,7,8-tetrahydro-5-methyl-8-(1-methylethyl)-6-oxo-2-pteridinyl]amino]-3-methoxy-benzamide], the “T/C (ratio of median tumor volume of treated vs. control tumors)” value came out at 76% (Volasertib alone 10 mg/kg i.v. once weekly) and 38% (Volasertib alone 20 mg/kg i.v. once weekly).

Consider `Nc1ncn([C@H]2C[C@H](O)[C@@H](CO)O2)c(=O)n1` [decitabine, Decitabine], for which the “T/C (ratio of median tumor volume of treated vs. control tumors)” value (decitabine alone 1.25 mg/kg i.p. twice weekly on two consecutive days) amounted to 59% and the “T/C (ratio of median tumor volume of treated vs. control tumors)” value (decitabine alone 2.5 mg/kg i.p. twice weekly on two consecutive days) stood at 53%.
